Results taken from the NIST ThermoML archive (doi:10.1021/je5004912).
Numbers after ± are expanded uncertainties.

Test: excess molar enthalpy (molar enthalpy of mixing); xn = mol fraction of the nth substance listed
Conditions: 101 kPa, Liquid, Flow calorimetry

CC(C)CC(C)(C)C [2,2,4-trimethylpentane] + CCCO
excess molar enthalpy [kcal/mol]
Conditions	298.15 K	313.15 K
x1 = 0.05	0.0208 ± 0.00239	0.0282 ± 0.00263
x1 = 0.1	–	0.0543 ± 0.00263
x1 = 0.1001	0.0399 ± 0.00239	–
x1 = 0.1504	–	0.0784 ± 0.00263
x1 = 0.1505	0.0576 ± 0.00263	–
x1 = 0.2002	–	0.1 ± 0.00263
x1 = 0.2003	0.0736 ± 0.00263	–
x1 = 0.25	–	0.12 ± 0.00263
x1 = 0.2501	0.0882 ± 0.00263	–
x1 = 0.2997	–	0.139 ± 0.00263
x1 = 0.2999	0.102 ± 0.00263	–
x1 = 0.3498	–	0.156 ± 0.00287
x1 = 0.3499	0.114 ± 0.00263	–
x1 = 0.4004	–	0.172 ± 0.00287
x1 = 0.4006	0.126 ± 0.00263	–
x1 = 0.4502	–	0.185 ± 0.00287
x1 = 0.4503	0.136 ± 0.00263	–
x1 = 0.4995	–	0.195 ± 0.00287
x1 = 0.4997	0.144 ± 0.00263	–
x1 = 0.5503	–	0.203 ± 0.00287
x1 = 0.5504	0.151 ± 0.00263	–
x1 = 0.5997	–	0.209 ± 0.00287
x1 = 0.5998	0.155 ± 0.00263	–
x1 = 0.6498	–	0.211 ± 0.00287
x1 = 0.65	0.157 ± 0.00263	–
x1 = 0.7007	–	0.211 ± 0.00287
x1 = 0.7008	0.157 ± 0.00263	–
x1 = 0.7501	–	0.206 ± 0.00287
x1 = 0.7502	0.153 ± 0.00263	–
x1 = 0.7993	–	0.197 ± 0.00287
x1 = 0.7994	0.146 ± 0.00263	–
x1 = 0.8499	0.135 ± 0.00263	0.184 ± 0.00287
x1 = 0.8998	0.12 ± 0.00263	0.163 ± 0.00287
x1 = 0.9506	0.0937 ± 0.00263	0.124 ± 0.00287

CCCCCCC [heptane] + CCCO
excess molar enthalpy [kcal/mol]
Conditions	298.15 K	313.15 K
x1 = 0.0503	0.0229 ± 0.00239	0.0292 ± 0.00263
x1 = 0.1001	–	0.0564 ± 0.00263
x1 = 0.1002	0.0435 ± 0.00263	–
x1 = 0.15	–	0.081 ± 0.00263
x1 = 0.1501	0.0619 ± 0.00263	–
x1 = 0.2	–	0.103 ± 0.00263
x1 = 0.2001	0.0786 ± 0.00263	–
x1 = 0.2498	–	0.124 ± 0.00263
x1 = 0.2499	0.0935 ± 0.00263	–
x1 = 0.3004	0.107 ± 0.00263	0.142 ± 0.00263
x1 = 0.3503	–	0.159 ± 0.00287
x1 = 0.3505	0.119 ± 0.00263	–
x1 = 0.4003	–	0.174 ± 0.00287
x1 = 0.4005	0.13 ± 0.00263	–
x1 = 0.4498	–	0.186 ± 0.00287
x1 = 0.4501	0.139 ± 0.00263	–
x1 = 0.4996	–	0.196 ± 0.00287
x1 = 0.4997	0.147 ± 0.00263	–
x1 = 0.5503	–	0.203 ± 0.00287
x1 = 0.5505	0.153 ± 0.00263	–
x1 = 0.5995	–	0.208 ± 0.00287
x1 = 0.5996	0.157 ± 0.00263	–
x1 = 0.6505	–	0.211 ± 0.00287
x1 = 0.6506	0.158 ± 0.00263	–
x1 = 0.7004	–	0.209 ± 0.00287
x1 = 0.7005	0.157 ± 0.00263	–
x1 = 0.7503	–	0.204 ± 0.00287
x1 = 0.7504	0.153 ± 0.00263	–
x1 = 0.8	–	0.195 ± 0.00287
x1 = 0.8001	0.145 ± 0.00263	–
x1 = 0.8492	–	0.18 ± 0.00287
x1 = 0.8493	0.134 ± 0.00263	–
x1 = 0.8993	0.118 ± 0.00263	0.16 ± 0.00287
x1 = 0.9503	0.0913 ± 0.00263	0.123 ± 0.00287

C=CCCCC [hex-1-ene] + CCCO
excess molar enthalpy [kcal/mol]
Conditions	298.15 K	313.15 K
x1 = 0.0501	0.0146 ± 0.00239	0.022 ± 0.00263
x1 = 0.1002	–	0.0445 ± 0.00263
x1 = 0.1003	0.0301 ± 0.00239	–
x1 = 0.1501	0.0459 ± 0.00239	0.0667 ± 0.00263
x1 = 0.2001	–	0.0884 ± 0.00263
x1 = 0.2002	0.0612 ± 0.00263	–
x1 = 0.2499	–	0.109 ± 0.00263
x1 = 0.2501	0.0762 ± 0.00263	–
x1 = 0.3003	–	0.13 ± 0.00263
x1 = 0.3004	0.0913 ± 0.00263	–
x1 = 0.3499	–	0.148 ± 0.00287
x1 = 0.3501	0.106 ± 0.00263	–
x1 = 0.4006	–	0.166 ± 0.00287
x1 = 0.4007	0.119 ± 0.00263	–
x1 = 0.4499	–	0.181 ± 0.00287
x1 = 0.4501	0.132 ± 0.00263	–
x1 = 0.4998	–	0.195 ± 0.00287
x1 = 0.5001	0.142 ± 0.00263	–
x1 = 0.5502	–	0.206 ± 0.00287
x1 = 0.5504	0.152 ± 0.00263	–
x1 = 0.5996	–	0.214 ± 0.00287
x1 = 0.5998	0.159 ± 0.00287	–
x1 = 0.6503	–	0.218 ± 0.00287
x1 = 0.6505	0.163 ± 0.00287	–
x1 = 0.6996	–	0.22 ± 0.00287
x1 = 0.6998	0.165 ± 0.00287	–
x1 = 0.75	0.163 ± 0.00287	0.217 ± 0.00287
x1 = 0.7998	–	0.209 ± 0.00287
x1 = 0.7999	0.158 ± 0.00287	–
x1 = 0.8505	0.147 ± 0.00263	0.195 ± 0.00287
x1 = 0.9004	0.131 ± 0.00263	0.172 ± 0.00287
x1 = 0.9508	0.102 ± 0.00263	0.131 ± 0.00287
